Laboratory results published in patent publication US12606533B2, “3-phenylpropylamine derivative” (DAIICHI SANKYO COMPANY, LIMITED, priority 2023, dated 2026).

Tests used:
CYP21A2 = assay: Changes in SF1 target gene expression for NCI-H295R: CYP21A2 mRNA (qPCR); type: cell-based; details: Homo sapiens, NCI-H295R cells, 24 hr
Method: (§1) NCI-H295R cells were cultured in a 5% CO2 incubator at 37° C. using DMEM/F12 medium (Thermo Fisher Scientific Inc.) containing 2.5% Nu-Serum (registered trademark) Growth Medium Supplement (Corning) and 1% Corning ITS+ Premix Universal Culture Supplement (Corning). The DMSO solution of each compound was serially diluted with DMSO using a D300e Digital Dispenser (TECAN), and the compounds were added to a 96-well plate (FALCON). NCI-H295R cells were seeded at 1×10^4 cells/50 μL/well on the 96-well plate containing the compounds added thereto, and cultured for 24 hr in a 5% CO2 incubator at 37° C. The final DMSO concentration in the medium was adjusted to 0.1% (v/v) in all cases, and the concentration range of the compounds was set to 1000 nM to 0.32 nM with a common ratio […]. After the completion of culture, the medium was discarded, 50 μL/well of chilled D-PBS (Sigma Aldrich) was added to wash the cells, and D-PBS was discarded. After washing, 25 μL/well of Cells-to-CT (registered trademark) Bulk Lysis Reagents (Thermo Fisher Scientific, Inc.) was added to the wells, the mixture was stirred for 5 min with a plate mixer, and 2.5 μL/well of the reaction quenching liquid was added to prepare cell lysate. The cell lysate was dispensed into a 96-well plate (Corning) at 10 μL/well, and 40 μL/well of Cells-to-CT Bulk RT Reagents (Thermo Fisher Scientific, Inc.) was added. A reverse transcription reaction was performed at 37° C. for 50 min using a thermal cycler, and the reverse transcriptase was inactivated by heating at 95° C. for 5 min, and then stored at 10° C. PrimeTime (registered trademark) Gene Expression Master Mix (Integrated DNA Technologies), the target genes CYP11A1, CYP17A1, CYP21A2, or STAR, and the control gene ACTB PrimeTime (registered trademark) qPCR Probe Assays (Integrated DNA Technologies), and Nuclease free water were mixed at a ratio of 20:1:1:10 to prepare a PrimerProbe mix. The prepared PrimerProbe mix was added to a 384-well plate at 8 μL/well, and the cDNA obtained by reverse transcription was added at 2 μL/well. Real-Time PCR was performed under fast cycling conditions (95° C. for 3 min, followed by 40 cycles of 95° C. for 5 seconds and 62° C. for 30 seconds) to measure the fluorescent signal. The obtained data was analyzed using GraphPad Prism9 (GraphPad Software Inc.) to calculate the concentration (IC50 value) that reduces the mRNA expression level by 50%. The IC50 values (unit: nM) for CYP11A1, CYP17A1, CYP21A2, and STAR, of the compounds corresponding to each Example number are shown in Table 94.

CYP17A1 = assay: Changes in SF1 target gene expression for NCI-H295R: CYP17A1 mRNA (qPCR); type: cell-based; details: Homo sapiens, NCI-H295R cells, 24 hr
Method: as §1

STAR = assay: Changes in SF1 target gene expression for NCI-H295R: STAR mRNA (qPCR); type: cell-based; details: Homo sapiens, NCI-H295R cells, 24 hr
Method: as §1

CYP11A1 = assay: Changes in SF1 target gene expression for NCI-H295R: CYP11A1 mRNA (qPCR); type: cell-based; details: Homo sapiens, NCI-H295R cells, 24 hr
Method: as §1

SF1-LBD = SF1-LBD (Homo sapiens, UniProt Q13285); assay: Inhibitory activity against binding of DAX1 to SF1-LBD (AlphaLISA); details: inhibition of binding of DAX1 peptide to His-SF1-LBD, read-out: cell-free SF1 IC50
Method: The binding activity of each compound to the SF-1 ligand binding domain (LBD) was evaluated using the binding inhibitory activity of each compound against binding of DAX1 to SF1-LBD as an index. 100 nM His-SF1-LBD, 2 nM Biotin-DAX1 peptide (Biotin-[…]-NH2) and each compound (8-point i1 dilution series with common ratio 2 from final concentration 2 μM) were mixed in assay buffer [25 mM HEPES (pH 7.5), 100 mM NaCl, 0.1% BSA, 0.01% CHAPS, 1 mM DTT] and reacted at room temperature for 30 min. Anti-6×His AlphaLISA Acceptor beads and Streptavidin-coated AlphaScreen Donor beads were mixed to a final concentrations of 5 μg/ml and 10 μg/ml, respectively, and reacted in the dark at room temperature for 60 min. AlphaLISA signals were detected using a multimode plate reader (EnVision Xcite, PerkinElmer). The binding rate of DAX1 peptide to SF1 was calculated from the luminescence amount (C) of the compound-free group and the luminescence amount (T) of the compound-added group, based on the following formula.
The DAX1 peptide binding rate at each concentration was analyzed using GraphPad Prism6 (GraphPad Software Inc.) to calculate the concentration (IC50 value) of each compound that inhibits 50% of the binding of DAX1 to SF1-LBD.

SF1-LBD, sequence (Q13285 222-459 limits assumed): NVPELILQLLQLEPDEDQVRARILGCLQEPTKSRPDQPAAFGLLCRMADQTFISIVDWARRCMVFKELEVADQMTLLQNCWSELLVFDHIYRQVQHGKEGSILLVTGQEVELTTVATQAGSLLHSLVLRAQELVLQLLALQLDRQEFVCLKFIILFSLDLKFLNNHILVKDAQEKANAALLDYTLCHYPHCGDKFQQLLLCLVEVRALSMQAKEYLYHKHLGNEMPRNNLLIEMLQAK

Compound | IC50 (CYP21A2) [µM] | IC50 (CYP17A1) [µM] | IC50 (STAR) [µM] | IC50 (CYP11A1) [µM] | IC50 (SF1-LBD) [µM]
COc1ccc(C2(CCN(Cc3ccc(O[C@H]4CC[C@H](C(=O)NS(=O)(=O)N(C)C)CC4)cc3)C(=O)C(C)(C)C)CCOC(C)(C)C2)cc1 (stereo partly drawn) [Example H1, Trans-4-(4-{[(2,2-dimethylpropanoyl) {2-[4-(4-methoxyphenyl)-2,2-dimethyltetrahydro-2H-pyran-4-yl]ethyl}amino]methyl}phenoxy)-N-(dimethylsulfamoyl)cyclohexanecarboxamide] | 0.039 | 0.08 | 0.037 | 0.025 | 0.032
CC(C)Oc1ccc(C2(CCN(Cc3ccc(O[C@H]4CC[C@H](C(=O)O)CC4)cc3)C(=O)C(C)(C)C)CCOC(C)(C)C2)cc1 (stereo partly drawn) [Example F4, Trans-4-(4-{[(2,2-dimethylpropanoyl) (2-{2,2-dimethyl-4-[4-(propan-2-yloxy)phenyl]tetrahydro-2H-pyran-4-yl}ethyl)amino]methyl}phenoxy)cyclohexanecarboxylic acid] | 0.023 | 0.166 | 0.069 | 0.014 | 0.031
CNc1ccc(C2(CCN(Cc3ccc(O[C@H]4CC[C@H](C(=O)O)CC4)cc3)C(=O)C(C)(C)C)CCOC(C)(C)C2)cc1 (stereo partly drawn) [Example L2, Trans-4-(4-{[(2-{2,2-dimethyl-4-[4-(methylamino)phenyl]tetrahydro-2H-pyran-4-yl}ethyl) (2,2-dimethylpropanoyl)amino]methyl}phenoxy)cyclohexanecarboxylic acid] | 0.046 | 0.238 | 0.083 | 0.017 | 0.032
COc1ccc([C@]2(CCN(Cc3ccc(Oc4ccc(C(C)C(=O)O)cc4)cc3)CC(C)(C)C(F)(F)F)CCOC(C)(C)C2)cc1 (stereo partly drawn) [Example P3, 2-[4-(4-{[{2-[(4R)-4-(4-Methoxyphenyl)-2,2-dimethyltetrahydro-2H-pyran-4-yl]ethyl}(3,3,3-trifluoro-2,2-dimethylpropyl)amino]methyl}phenoxy)phenyl]propanoic acid] | 0.0098 | 0.137 | 0.019 | 0.0044 | 0.03
COc1ccc(C2(CCN(Cc3ccc(Oc4ccc(N=S(C)(C)=O)cc4)cc3)C(=O)C(C)(C)C)CCOC(C)(C)C2)cc1 (stereo not shown) [Example N2] | 0.03 | 0.113 | 0.039 | 0.019 | 0.041
COc1ccc([C@]2(CCN(Cc3ccc(O[C@H]4CC[C@H](C(=O)O)CC4)cc3)C(=O)C(C)(C)C)CCOC(C)(C)C2)cc1 [Example E2, Trans-4-(4-{[(2,2-dimethylpropanoyl) {2-[(4R)-4-(4-methoxyphenyl)-2,2-dimethyltetrahydro-2H-pyran-4-yl]ethyl)amino]methyl}phenoxy)cyclohexanecarboxylic acid] | 0.033 | 0.189 | 0.065 | 0.017 | 0.019
COc1ccc([C@]2(CCN(Cc3ccc(O[C@H]4CC[C@H](CC(=O)O)CC4)nc3)CC(C)(C)C(F)(F)F)CCOC(C)(C)C2)cc1 [Example S4, {Trans-4-[(5-{[{2-[(4R)-4-(4-methoxyphenyl)-2,2-dimethyltetrahydro-2H-pyran-4-yl]ethyl}(3,3,3-trifluoro-2,2-dimethylpropyl)amino]methyl}pyridin-2-yl)oxy]cyclohexyl)acetic acid] | 0.0022 | 0.012 | 0.0032 | 0.0012 | 0.022
COc1ccc([C@]2(CCN(Cc3ccc(O[C@H]4CC[C@H](C(=O)O)CC4)cc3)CC(C)(C)C(F)(F)F)CCOC(C)(C)C2)cc1 [Example M5, Trans-4-(4-{[{2-[(4R)-4-(4-methoxyphenyl)-2,2-dimethyltetrahydro-2H-pyran-4-yl]ethyl)(3,3,3-trifluoro-2,2-dimethylpropyl)amino]methyl}phenoxy)cyclohexanecarboxylic acid] | 0.0043 | 0.013 | 0.0039 | 0.0028 | 0.018
